Data on eight compounds can be found in patent publication US4322370A, “Polycyclic compounds” (Beecham Group Limited, priority 1975, dated 1982).

A short description of data set [1]: Reduction in food intake in hungry rats after oral administration (anorexic activity). Particulars: 10 mg/kg. It counts as in vivo. On the procedure: The useful anorexic activity of 4-(4-chlorophenyl)-2, 2-dimethyl-7-(2-dimethylaminoethoxy)-1-methylidene tetralin and 4-(4-chlorophenyl-1,2,2,-trimethyl-7-(2-dimethylaminoethoxy) tetralin were determined by the oral administration to hungry rats of the compound and measuring the reduction in their food intake. The results are as follows: […]

In data set [2] the test system is reserpine-induced hypothermia. Kind of data set: Reserpine Prevention test (prevention of reserpine-induced hypothermia in mice). The data set is classed as in vivo. Particulars: Mus musculus, read-out: Approximate Dose required mg/kg (dose at which compounds are active on the Reserpine Prevention Test in Mice). The source says:
The results given in Table 1 were obtained for compounds of the formula (XIII): [drawing 22]

A short description of data set [3]: Oral toxicity in mice (deaths, LD50). Particulars: for Min Dose (mg/kg) at which deaths occurred: mice; for LD50: mouse, in vivo, po.
Data set [4] can be described thus: in vivo. Particulars: mouse, po.

On to `C=C1c2cc(OCCN(C)C)ccc2C(c2ccc(Cl)cc2)CC1(C)C` (centres unmarked) [4-(4-Chlorophenyl)-2,2-dimethyl-7-(2-dimethylaminoethoxy)-1-methylidene tetralin], for which, in data set [1], the “reduction in food intake” value amounted to 51%.

As a reminder, the LD50 is the dose at which mortality reaches 50%. High values mean lower toxicity, low ones greater toxicity. On to `CC1c2cc(OCCN(C)C)ccc2C(c2ccc(Cl)cc2)CC1(C)C` (centres unmarked) [CH2 CH3 CHCH3 Cl H, 4-(4-Chlorophenyl)-1,2,2-trimethyl-7-(2-dimethylaminoethoxy)tetralin], for which, in data set [2], the minimal effective dose stood at 3 mg/kg. Further, in data set [3], the “Min Dose (mg/kg) at which deaths occurred” value (“Min Dose (mg/kg)” below) is given as above 100 mg/kg and the LD50 was above 100 mg/kg. For the same compound, the “reduction in food intake” value in data set [1] is on record as 35%.

In the case of `CN(C)CCOc1ccc2c(c1)C(Cl)C(C)(C)CC2c1ccc(Cl)cc1` (centres unmarked) [CH2 CH3 CHCl Cl H, 1-Chloro-4-(4-chlorophenyl)-2,2-dimethyl-7-(2-dimethylaminoethoxy)tetralin], the minimal effective dose in data set [2] stood at 0.1 mg/kg. Moreover, in data set [3], the “Min Dose (mg/kg)” value amounted to 30 mg/kg and the LD50 is 33 mg/kg.

On to `CN(C)CCOc1ccc2c(c1)C(O)C(C)(C)CC2c1ccc(Cl)cc1` (centres unmarked) [CH2 CH3 CHOH Cl H, 4-(4-Chlorophenyl)-1-hydroxy-2,2-dimethyl-7-(2-dimethylaminoethoxy)tetralin], for which the minimal effective dose in data set [2] is 0.1 mg/kg. Moreover, the “Min Dose (mg/kg)” value in data set [3] is given as 3 mg/kg. This compound also displayed an LD50 in data set [4] of 11 mg/kg.

In the case of `CN(C)CCOc1ccc2c(c1)C(=O)C(C)(C)CC2c1ccc(Cl)c(Cl)c1` (centres unmarked) [CH2 CH3 CO Cl Cl, 4-(3,4-Dichlorophenyl)-2,2-dimethyl-7-(2-dimethylaminoethoxy)-1-tetralone], the minimal effective dose in data set [2] turned out to be 1 mg/kg. In data set [3], the “Min Dose (mg/kg)” value is given as 10 mg/kg and the LD50 is 10 to 30 mg/kg.

For `CN(C)CCOc1ccc2c(c1)C(=O)C(C)(C)CC2c1ccc(Cl)cc1` (centres unmarked) [CH2 CH3 CO Cl H, 4-(4-Chlorophenyl)-2,2-dimethyl-7-(2-dimethylaminoethoxy)-1-tetralone], the minimal effective dose in data set [2] turned out to be 0.03 mg/kg. In data set [3], the “Min Dose (mg/kg)” value came to 10 mg/kg and the LD50 was 55 mg/kg.

Consider `CN(C)CCOc1ccc2c(c1)C(=O)C(C)(C)CC2c1cccc(C(F)(F)F)c1` (centres unmarked) [CH2 CH3 CO H CF3, 4-(3-Trifluoromethylphenyl)-2,2-dimethyl-7-(2-dimethylaminoethoxy)-1-tetralone], for which, in data set [2], the minimal effective dose is 3 mg/kg. In addition, in data set [3], the “Min Dose (mg/kg)” value was above 100 mg/kg and the LD50 was above 100 mg/kg.

On to `CNCC(O)COc1ccc2c(c1)C(=O)C(C)(C)CC2c1ccc(Cl)c(Cl)c1` (centres unmarked) [H CO Cl Cl, 4-(3,4-Dichlorophenyl)-7-(2-hydroxy-3-methylaminopropoxy)-2,2-dimethyl-1-tetralone], for which the minimal effective dose in data set [2] was 1 mg/kg. In data set [3], the “Min Dose (mg/kg)” value was above 100 mg/kg and the LD50 is 100 mg/kg.
